The assay deals with T1, IκBα ubiquitinating enzyme (SCF complex: ROC1, Cullin1, Skp1, His-TrCP1; with E1, UbcH5b) (Homo sapiens, UniProt P62877+P63208+Q13616+Q9Y297).
T1 construct: His (polyhistidine); made in house; host or cells: insect cells (baculovirus) for the SCF complex and His-E1; E. coli for His-UBCH5b
In words: Measurement of ubiquitinating enzyme activity (IκBα ubiquitination, time-resolved fluorescence with Eu(K)-labeled ubiquitin and XL665-labeled anti-GST antibody). Format: biochemical. The note with it: enzyme activity inhibition test, method (1), Table 5; read-out: EVALUATION
On the procedure:
Method 1: Measurement of ubiquitinating enzyme activity
A recombinant vector His-UBCH5b containing a polyhistidine tag (His) and UBCH5b was prepared. E. coli was transformed with the vector, the protein was expressed, and affinity purification was carried out using Ni-NTA agarose (Qiagen). Four types of recombinant baculoviruses (ROC1, Cullin1, Skp1, and His-TrCP1) were prepared for the SCF complex protein, insect cells were infected in quadruplicate for expression, and affinity purification was carried out using Ni-NTA agarose. Recombinant baculoviruses His-IKKβ, His-E1 were prepared. The insect cells were infected with each of those for expression, and affinity purification was carried out using Ni-NTA agarose. A recombinant vector GST-IκBα was prepared by fusing glutathione-S-transferase tag (GST) and IκBα, E. coli was transformed with the vector for the protein expression, and affinity purification was carried out using glutathione sepharose (Amersham Biosciences). Genetic transformants were prepared by PCR amplification followed by recombination, all of which were based on published human-derived sequences.
Phosphorylation reaction of IκBα was performed by incubating the above-mentioned assay buffer (50 mM Tris-HCl (pH7.4), 2 mM ATP, 5 mM MgCl2, 0.5 mM DTT, 0.1% BSA) containing IκBα and IKKβ at room temperature for 1 hour. Ubiquitination reactions were carried out as follows. Compound samples at various concentrations, ubiquitin, Eu (K)-labeled ubiquitin, E1, UbcH5b, and SCF complex were added to phosphorylated IκBα, and then this was incubated at room temperature for 30 minutes. The reaction was terminated by adding EDTA, the above-mentioned revelation buffer (100 mM phosphate buffer (pH7.0), 0.5 M KF, 0.1% BSA) containing XL665-labeled anti-GST antibody was added and this was left to stand at room temperature for 2 hours. Measurements were made using ARVO-HTS (Perkin Elmer). The ratio of fluorescence intensities at 620 nm and 665 nm (Em 665 nm/Em 620 nm x 10,000) with excitation light at 337 nm was measured.
The ubiquitination level without the addition of a compound sample was used as the control value, and the level in the absence of SCF complex was used as the blank value for the assays. Inhibitory activities of the compounds were indicated as % inhibition = 100 - (value with a compound sample added - blank value) / (control value - blank value) x 100. IC50 was indicated as the concentration of the compound showing 50% inhibition. Eu (K)-labeled ubiquitin, XL665-labeled anti-GST antibody, and XL665-labeled anti-His antibody were purchased from CIS bio international. Costar solid black plates (96 wells) were used for the assays.

SMILES strings stand for the structures. pIC50: −log10 of the molar value.

T1 sequence (Q9Y297 whole entry): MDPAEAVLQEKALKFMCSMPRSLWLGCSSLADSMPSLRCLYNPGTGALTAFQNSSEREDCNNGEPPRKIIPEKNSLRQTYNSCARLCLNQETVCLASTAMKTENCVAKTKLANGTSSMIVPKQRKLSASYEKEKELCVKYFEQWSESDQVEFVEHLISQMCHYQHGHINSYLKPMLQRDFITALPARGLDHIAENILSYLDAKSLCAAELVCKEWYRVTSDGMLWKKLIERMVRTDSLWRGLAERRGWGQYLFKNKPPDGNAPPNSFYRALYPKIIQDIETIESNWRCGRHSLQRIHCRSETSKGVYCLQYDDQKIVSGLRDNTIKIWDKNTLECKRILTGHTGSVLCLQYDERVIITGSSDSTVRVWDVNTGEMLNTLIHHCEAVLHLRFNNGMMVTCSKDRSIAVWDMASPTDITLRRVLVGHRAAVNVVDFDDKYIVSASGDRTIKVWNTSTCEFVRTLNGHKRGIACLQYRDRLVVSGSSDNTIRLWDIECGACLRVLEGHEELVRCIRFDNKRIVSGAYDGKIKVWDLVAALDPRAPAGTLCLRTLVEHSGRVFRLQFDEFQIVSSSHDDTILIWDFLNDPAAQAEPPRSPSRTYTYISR
T1 sequence (Q13616 whole entry): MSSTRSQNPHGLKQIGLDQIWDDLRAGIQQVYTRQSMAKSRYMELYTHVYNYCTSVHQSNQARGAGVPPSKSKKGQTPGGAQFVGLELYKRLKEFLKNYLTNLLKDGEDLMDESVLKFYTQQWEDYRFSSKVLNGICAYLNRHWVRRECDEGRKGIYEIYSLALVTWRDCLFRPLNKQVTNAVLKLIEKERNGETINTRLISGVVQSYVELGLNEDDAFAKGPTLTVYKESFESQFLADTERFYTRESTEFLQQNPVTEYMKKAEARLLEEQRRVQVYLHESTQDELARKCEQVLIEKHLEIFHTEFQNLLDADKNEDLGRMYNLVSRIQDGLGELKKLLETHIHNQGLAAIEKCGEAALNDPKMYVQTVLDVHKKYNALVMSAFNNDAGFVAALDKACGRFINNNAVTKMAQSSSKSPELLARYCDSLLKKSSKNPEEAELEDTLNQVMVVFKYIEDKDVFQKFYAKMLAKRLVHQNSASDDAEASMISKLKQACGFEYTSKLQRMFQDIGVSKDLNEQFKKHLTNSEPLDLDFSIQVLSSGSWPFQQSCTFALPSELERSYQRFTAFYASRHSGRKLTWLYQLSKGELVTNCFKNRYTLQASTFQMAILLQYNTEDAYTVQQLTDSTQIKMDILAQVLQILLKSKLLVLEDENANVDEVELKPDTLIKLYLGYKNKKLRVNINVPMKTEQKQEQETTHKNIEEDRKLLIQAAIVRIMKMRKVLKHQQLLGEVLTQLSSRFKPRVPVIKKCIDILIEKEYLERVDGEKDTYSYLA
T1 sequence (P63208 whole entry): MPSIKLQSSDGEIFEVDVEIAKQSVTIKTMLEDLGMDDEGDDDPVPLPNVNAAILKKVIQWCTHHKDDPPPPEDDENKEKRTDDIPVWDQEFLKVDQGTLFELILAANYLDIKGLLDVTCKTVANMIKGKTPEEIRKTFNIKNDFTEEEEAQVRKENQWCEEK
T1 sequence (P62877 whole entry): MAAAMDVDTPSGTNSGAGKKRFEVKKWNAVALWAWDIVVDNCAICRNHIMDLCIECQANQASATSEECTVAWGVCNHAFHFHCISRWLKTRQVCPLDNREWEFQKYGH

Regarding `COCC1=NN(c2ccccc2)C(=O)/C1=C\c1ccc(OCc2ccccc2)c(OC)c1` [Compound 3], the pIC50 was 4.70 to 5.00.

For `COCC1=NN(c2ccccc2)C(=O)/C1=C\c1ccc(N2CCN(C(=O)OC)CC2)cc1` [Compound 5], the pIC50 is above 4.40.

Regarding `COCC1=NN(c2ccccc2)C(=O)/C1=C\c1ccc(CO)o1` [Compound 7], the pIC50 is above 4.40.

As to `COCC1=NN(c2ccccc2)C(=O)/C1=C\c1ccc2c(c1)OCCO2` [Compound 9], the pIC50 is 4.70 to 5.00.

As to `COCC1=NN(c2ccccc2)C(=O)/C1=C\c1ccc(-n2cccn2)cc1` [Compound 10], the pIC50 is above 4.40.

As for `O=C1/C(=C\c2ccc(-c3ccccc3F)o2)C(c2ccoc2)=NN1c1ccccc1` [Compound 15], the pIC50 was above 5.00.

In the case of `COc1cc(/C=C2\C(=O)N(c3ccccc3)N=C2Cc2ccccc2)ccc1O` [Compound 22], the pIC50 is 4.70 to 5.00.

As to `O=C1/C(=C\c2ccc3ccccc3c2)C(Cc2ccccc2)=NN1c1ccccc1` [Compound 23], the pIC50 was above 4.40.

On to `O=C1/C(=C\c2ccc(-c3ccccc3F)o2)C(Cc2ccccc2)=NN1c1ccccc1` [Compound 26], for which the pIC50 is above 4.40.

With `O=C1/C(=C\c2ccc(-n3cccn3)cc2)C(Cc2ccccc2)=NN1c1ccccc1` [Compound 30], the pIC50 was 4.70 to 5.00.

For `O=C1/C(=C\c2ccc(-n3cncn3)cc2)C(Cc2ccccc2)=NN1c1ccccc1` [Compound 31], the pIC50 is above 4.40.

As to `COc1ccc(C2=NN(c3ccccc3)C(=O)C2=Cc2ccc(CO)o2)cc1OC` [Compound 35], the pIC50 was above 4.40.

Regarding `COc1cc(/C=C2\C(=O)N(c3ccccc3)N=C2c2ccncc2)ccc1O` [Compound 40], the pIC50 is above 4.40.

As for `COC(=O)N1CCN(c2ccc(/C=C3\C(=O)N(c4ccccc4)N=C3c3ccncc3)cc2)CC1` [Compound 42], the pIC50 was above 4.40.

Turning to `O=C1/C(=C\c2ccc(CO)o2)C(c2ccncc2)=NN1c1ccccc1` [Compound 44], the pIC50 is above 4.40.

As to `O=C1/C(=C\c2ccc(N3CCCC3)cc2)C(c2ccncc2)=NN1c1ccccc1` [Compound 45], the pIC50 was above 4.40.

For the molecule `O=C1/C(=C\c2ccc3c(c2)OCCO3)C(c2ccncc2)=NN1c1ccccc1` [Compound 46], the pIC50 was above 4.40.

Regarding `O=C1/C(=C\c2ccc(CO)o2)C(c2ccccn2)=NN1c1ccccc1` [Compound 48], the pIC50 is above 4.40.

As to `CCCCC1=NN(c2ccccc2)C(=O)/C1=C\c1ccc(O)c(OC)c1` [Compound 50], the pIC50 is 4.70 to 5.00.

In the case of `CCCCC1=NN(c2ccccc2)C(=O)/C1=C\c1ccc2ccccc2c1` [Compound 51], the pIC50 was above 4.40.

Regarding `CCCCC1=NN(c2ccccc2)C(=O)/C1=C\c1ccc(OCc2ccccc2)c(OC)c1` [Compound 52], the pIC50 was above 4.40.

For `CCCCC1=NN(c2ccccc2)C(=O)/C1=C\c1ccc(-n2cncn2)cc1` [Compound 59], the pIC50 was 4.70 to 5.00.

Consider `COc1cc(/C=C2\C(=O)N(c3ccccc3)N=C2c2cccnc2)ccc1O` [Compound 60], for which the pIC50 is above 4.40.

`COC(=O)N1CCN(c2ccc(/C=C3\C(=O)N(c4ccccc4)N=C3c3cccnc3)cc2)CC1` [Compound 62]: the pIC50 was above 4.40.

For `O=C1/C(=C\c2ccc(CO)o2)C(c2cccnc2)=NN1c1ccccc1` [Compound 64], the pIC50 was above 4.40.

As for `O=C1/C(=C\c2ccc3c(c2)OCCO3)C(c2cccnc2)=NN1c1ccccc1` [Compound 66], the pIC50 is above 4.40.

As for `O=C1/C(=C\c2ccc(-n3cccn3)cc2)C(c2cccnc2)=NN1c1ccccc1` [Compound 67], the pIC50 is above 4.40.

`COc1cc(/C=C2\C(=O)N(c3ccccc3)N=C2C2CC2)ccc1OCc1ccccc1` [Compound 71]: the pIC50 is above 5.00.

Consider `O=C1/C(=C\c2cccc3nccnc23)C(C2CC2)=NN1c1ccccc1` [Compound 72], for which the pIC50 was above 4.40.

For the molecule `O=C1/C(=C\c2ccc(CO)o2)C(C2CC2)=NN1c1ccccc1` [Compound 75], the pIC50 was 4.70 to 5.00.

Turning to `CN1CCN(c2ccc(/C=C3\C(=O)N(c4ccccc4)N=C3C3CC3)cc2)CC1` [Compound 78], the pIC50 is 4.70 to 5.00.

Turning to `O=C1/C(=C\c2ccc(-n3cccn3)cc2)C(C2CC2)=NN1c1ccccc1` [Compound 79], the pIC50 was above 4.40.

With `O=C1/C(=C\c2ccc(-n3cncn3)cc2)C(C2CC2)=NN1c1ccccc1` [Compound 80], the pIC50 was above 4.40.

As to `CC(C)(C)OC(=O)N1CCN(C(=O)C2=NN(c3ccccc3)C(=O)/C2=C\c2ccc(-c3ccccc3F)o2)CC1` [Compound 88], the pIC50 is above 4.40.

Consider `CC(C)(C)OC(=O)N1CCN(C(=O)C2=NN(c3ccccc3)C(=O)C2=Cc2ccc(N3CCCC3)cc2)CC1` [Compound 89], for which the pIC50 was above 4.40.

In the case of `COc1ccc(C2=NN(c3ccccc3)C(=O)/C2=C\c2ccc(CO)o2)cc1` [Compound 90], the pIC50 is above 4.40.

On to `COc1ccc(C2=NN(c3ccccc3)C(=O)C2=Cc2ccc3c(c2)OCCO3)cc1` [Compound 93], for which the pIC50 is above 4.40.

As for `COC(=O)N1CCN(c2ccc(/C=C3\C(=O)N(c4ccccc4)N=C3C)cc2)CC1` [Compound 95], the pIC50 is above 4.40.

Turning to `COc1ccc(C2=NN(c3ccccc3)C(=O)/C2=C\c2ccc3ccccc3c2)cc1OC` [Compound 97], the pIC50 was 4.70 to 5.00.

With `CCCCC1=NN(c2ccccc2)C(=O)/C1=C\c1ccc2c(c1)OCCO2` [Compound 98], the pIC50 was 4.70 to 5.00.

On to `CC1=NN(c2ccccc2)C(=O)/C1=C\c1ccc(N2CCN(C)CC2)cc1` [Compound 99], for which the pIC50 is 4.70 to 5.00.

Turning to `CN1CCN(c2ccc(/C=C3\C(=O)N(c4ccccc4)N=C3Cc3ccccc3)cc2)CC1` [Compound 100], the pIC50 is above 4.40.

As for `CCCCC1=NN(c2ccccc2)C(=O)/C1=C\c1nccs1` [Compound 105], the pIC50 was above 4.40.

For the molecule `CCCCC1=NN(c2ccccc2)C(=O)C1=Cc1ccc(N2CCN(C)CC2)cc1` [Compound 106], the pIC50 was above 4.40.

Regarding `CC1=NN(c2ccc(S(N)(=O)=O)cc2)C(=O)/C1=C\c1ccc(-n2cncn2)cc1` [Compound 109], the pIC50 was above 4.40.

As for `NS(=O)(=O)c1ccc(N2N=C(C3CC3)/C(=C/c3ccc(-n4cccn4)cc3)C2=O)cc1` [Compound 110], the pIC50 was above 5.00.

With `NS(=O)(=O)c1ccc(N2N=C(C3CC3)/C(=C/c3ccc(-n4cncn4)cc3)C2=O)cc1` [Compound 111], the pIC50 is above 4.40.

For `COC(=O)c1ccc(COc2ccc(/C=C3\C(=O)N(c4ccccc4)N=C3C)cc2OC)cc1` [Compound 122], the pIC50 was above 4.40.

Consider `CCOC(=O)CN1N=C(C)/C(=C/c2ccc(O)c(OC)c2)C1=O` [Compound 130], for which the pIC50 was 4.70 to 5.00.

Take `COc1cc(/C=C2\C(=O)N(C)N=C2C)ccc1O` [Compound 132]: the pIC50 is above 4.40.

In the case of `CC1=NN(c2cccc(S(N)(=O)=O)c2)C(=O)C1=Cc1cccc2[nH]ccc12` [Compound 137], the pIC50 is 4.70 to 5.00.

Regarding `CC1=NN(c2cccc(S(N)(=O)=O)c2)C(=O)/C1=C\c1cccc2cc[nH]c12` [Compound 140], the pIC50 was above 5.00.

With `CC1=NN(c2cccc(S(N)(=O)=O)c2)C(=O)C1=Cc1cc2ccccc2n1C` [Compound 141], the pIC50 was 4.70 to 5.00.

Take `CC1=NN(c2ccc(S(N)(=O)=O)cc2)C(=O)C1=Cc1cc2ccccc2n1C` [Compound 142]: the pIC50 was above 4.40.

Regarding `CC1=NN(c2cccc(S(N)(=O)=O)c2)C(=O)/C1=C\c1ccc2occc2c1` [Compound 143], the pIC50 was above 4.40.

Turning to `CC1=NN(c2ccc(S(N)(=O)=O)cc2)C(=O)/C1=C\c1ccc2occc2c1` [Compound 144], the pIC50 was 4.70 to 5.00.

`CC1=NN(c2cccc(S(N)(=O)=O)c2)C(=O)/C1=C\c1ccc(-n2cccn2)cc1` [Compound 145]: the pIC50 is 4.70 to 5.00.

Take `CC1=NN(c2ccc(S(N)(=O)=O)cc2)C(=O)C1=Cc1c[nH]c2ccc(Cl)cc12` [Compound 146]: the pIC50 is above 5.00.

On to `CC1=NN(c2cccc(S(N)(=O)=O)c2)C(=O)/C1=C\c1c[nH]c2ccc(Cl)cc12` [Compound 147], for which the pIC50 was above 5.00.

For `CC1=NN(c2cccc(S(N)(=O)=O)c2)C(=O)/C1=C\c1ccc2cc[nH]c2c1` [Compound 149], the pIC50 was above 5.00.

Turning to `CC1=NN(c2ccc(S(N)(=O)=O)cc2)C(=O)C1=Cc1cccc2cc[nH]c12` [Compound 151], the pIC50 was above 5.00.

Source of the values: patent EP1900728A1 (Genecare Research Institute Co., Ltd, priority 2005, dated 2006).
